{"source": "patent US10596118B2", "about": "“Solid dispersions” (Shionogi Inc., priority 2015, dated 2020)", "key": {"[1]": {"experiment": "Solubility by shake flask method with HPLC analysis", "settings": "thermodynamic from solid", "method": "Solubility measurements of the solid dispersions and physical mixtures were performed using a shake flask method. Individual test samples comprising about 5 mg ospemifene, 30 mg of each physical mixture, or 30 mg of each solid dispersion, were mixed with 20 mL of an aqueous media (either water alone, 0.1N HCl, or a buffered aqueous solution comprising 50 mM phosphate, pH 6.8). The sample was agitated manually for 3 hours. Following mixing, a 1.5 mL sample was withdrawn to a micro-centrifuge tube and centrifuged at 12,000 rpm for 10 min. About 1 mL of supernatant was then transferred to a HPLC vial for HPLC analysis.\nThe solubilities of ospemifene solid dispersions, the control physical mixtures, and ospemifene alone were determined by HPLC in water, 0.1 N HCl, or 50 mM pH 6.8 buffer using a shake flask method, as described above."}, "[2]": {"experiment": "physchem", "settings": "organic solvent or mixture, thermodynamic from solid", "description": "In developing methods of evaluating the solubility of the various compositions produced in these studies, a common solvent was selected that was capable of dissolving both ospemifene and each of the hydrophilic carriers being evaluated. […] Thus, an incremental solvent addition method was used to estimate the solubility in methanol and ethanol co-solvent mixture."}, "[3]": {"settings": "poor water solubility and high permeability"}, "[4]": {"settings": "oral administration of a 60 mg dose; cited from earlier work"}, "[5]": {"experiment": "Micro dissolution in simulated GI fluids (FaSSIF, FeSSIF) and pH 6.8 phosphate buffer", "settings": "for solubility in FeSSIF relative to FaSSIF: FeSSIF versus FaSSIF", "description": "To investigate the in-vivo absorption process of ospemifene in the GI tract, a dissolution method using simulated GI fluids (FaSSIF and FeSSIF) was developed to simulate drug dissolution in-vivo. The abbreviation “FaSSIF” stands for fasted state simulated intestinal fluid, while the abbreviation “FeSSIF” stands for fed state simulated intestinal fluid. […] FaSSIF and FeSSIF media are commercially available from Biorelevant and were used according to the manufacturer's instructions.\nMicro dissolution was conducted in a centrifuge vial containing 1.5 mL of dissolution medium (either FaSSIF or FeSSIF) at room temperature. […] The vials were centrifuged at 30 min, 1, 2 and 3 hour(s) at 14,000 rpm for one minute and 50 μL of supernatant was transferred to an HPLC vial and diluted with 50 μL acetonitrile and assayed by HPLC.\nThe detector was set at 235 nm. Two mobile phases were used, mobile phase A and mobile phase B. Mobile phase A was 800/200/40 (v/v/v) deionized water/acetonitrile/tetrahydrofuran and mobile phase B was 100% acetonitrile.\nFor drug content analysis, the same HPLC column and mobile phases were used but the flow rate of the mobile phases was 1 ml/min, the injection volume was 7 μL and the gradient program was as follows: […]"}, "[6]": {"experiment": "physchem", "settings": "water or buffered solutions, aqueous buffer"}, "[7]": {"settings": "Sun et al., 2012; cited from earlier work"}}}
{"smiles": "OCCOc1ccc(/C(=C(/CCCl)c2ccccc2)c2ccccc2)cc1", "note": "[Ospemifene (OSP), ospemifene]", "values": [{"measurement": "solubility at 3 h", "setting": "[1]; pH 6.8, aqueous buffer", "value": "< 0.03", "unit": "µg/mL"}, {"measurement": "solubility at 3 h", "setting": "[1]; simulated gastric fluid", "value": "< 0.03", "unit": "µg/mL"}, {"measurement": "solubility at 3 h", "setting": "[1]; water", "value": 0.04, "unit": "µg/mL"}, {"measurement": "solubility", "setting": "[2]; solubility in ethanol, ethanol", "value": "~57000", "unit": "µg/mL"}, {"measurement": "solubility", "setting": "[2]; solubility in methanol, methanol", "value": "~67000", "unit": "µg/mL"}, {"measurement": "BCS class", "setting": "[3]", "value": "BCS class II"}, {"measurement": "share of total dose eliminated via the fecal route", "setting": "[4]", "value": 75, "unit": "%"}, {"measurement": "time the amount of drug in solution remains relatively stable", "setting": "[5]; FeSSIF and FaSSIF", "value": "2 to 3", "unit": "h"}, {"measurement": "solubility in FeSSIF relative to FaSSIF", "setting": "[5]; listed as micronized ospemifene", "value": "about 4 fold"}, {"measurement": "solubility in FeSSIF relative to FaSSIF", "setting": "[5]; listed as ospemifene alone", "value": "2-3 fold"}, {"measurement": "solubility at 2 h", "setting": "[5]; fassif, thermodynamic from solid", "value": 10, "unit": "µg/mL"}, {"measurement": "solubility", "setting": "[5]; fessif, thermodynamic from solid", "value": 45, "unit": "µg/mL"}, {"measurement": "solubility", "setting": "[5]; pH 6.8, aqueous buffer", "value": "< 10", "unit": "µg/mL"}, {"measurement": "solubility", "setting": "[6]", "value": "< 0.3", "unit": "µg/mL"}]}
{"smiles": "COc1ccc2c(c1)c(CC(=O)O)c(C)n2C(=O)c1ccc(Cl)cc1", "note": "[indomethacin]", "values": [{"measurement": "maximum solubility enhancement observed with HPMCAS or PVP", "setting": "[7]", "value": 9, "unit": "fold"}]}
